Literature values in patent publication US10265547B2, “Internal ultrasound gel” (SmileSonica Inc., priority 2012, dated 2019).

Assays:
[1] = average adult of 70 kg
clostridium butyricum = details: Makinen and Soderling 1981
saccharomyces cerevisiae = details: Makinen and Soderling 1981
Streptococcus pneumonia = details: nasopharyngeal flora, Kontiokari et al. 1995
salmonella typhi = details: Makinen and Soderling 1981
Escherichia coli = details: Makinen and Soderling 1981
lactobacillus bulgaricus = details: Makinen and Soderling 1981
Streptococcus mutans = details: xylitol in the range of 0.1% to 5%

Row | Structure (SMILES) | acceptable daily ingestion intake [1] [mg daily] | growth inhibition (clostridium butyricum) | growth inhibition (saccharomyces cerevisiae) | growth inhibition (Streptococcus pneumonia) | growth inhibition (salmonella typhi) | growth inhibition (Escherichia coli) | growth inhibition (lactobacillus bulgaricus) | reduction of oral bacterial flora (Streptococcus mutans)
1 | C/C=C/C=C/C(=O)[O-].[K+] [potassium sorbate] | 875 |  |  |  |  |  |  | 
2 | OC[C@@H](O)[C@H](O)[C@@H](O)CO [xylitol] |  | inhibiting the growth | inhibiting the growth | inhibiting the growth | inhibiting the growth | inhibiting the growth | inhibiting the growth | reduce oral bacterial flora
